Measured values as given in patent US9932349B2 (priority 2000, dated 2018).
Like-named read-outs stand apart in the source and are kept apart here.

Legend:
δ opioid receptor = molecular target: T1, δ opioid receptor (Cavia porcellus, UniProt A0A286XTF2); test: biochemical; format: binding, guinea pig
T1 construct: determined in guinea pig brain cells; from tissue; host or cells: guinea pig brain

κ opioid receptor = molecular target: T2, κ opioid receptor (Cavia porcellus, UniProt P41144); test: biochemical; format: binding, guinea pig
T2 construct: determined in guinea pig brain cells; from tissue; host or cells: guinea pig brain
T2 sequence (P41144 whole entry): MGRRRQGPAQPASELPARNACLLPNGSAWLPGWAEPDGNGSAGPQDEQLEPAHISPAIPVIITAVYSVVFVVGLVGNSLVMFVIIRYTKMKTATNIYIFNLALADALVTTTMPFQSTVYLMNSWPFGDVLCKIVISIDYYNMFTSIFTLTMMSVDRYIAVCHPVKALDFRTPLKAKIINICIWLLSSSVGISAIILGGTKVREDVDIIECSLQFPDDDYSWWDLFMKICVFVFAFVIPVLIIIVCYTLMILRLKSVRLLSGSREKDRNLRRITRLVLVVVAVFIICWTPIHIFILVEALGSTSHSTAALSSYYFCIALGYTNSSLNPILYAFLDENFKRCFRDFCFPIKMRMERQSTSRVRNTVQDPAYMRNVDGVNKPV

μ opioid receptor = μ opioid receptor (Cavia porcellus, UniProt A0ACM8Q262); format: binding, guinea pig
Sequence of μ opioid receptor (A0ACM8Q262 1-400): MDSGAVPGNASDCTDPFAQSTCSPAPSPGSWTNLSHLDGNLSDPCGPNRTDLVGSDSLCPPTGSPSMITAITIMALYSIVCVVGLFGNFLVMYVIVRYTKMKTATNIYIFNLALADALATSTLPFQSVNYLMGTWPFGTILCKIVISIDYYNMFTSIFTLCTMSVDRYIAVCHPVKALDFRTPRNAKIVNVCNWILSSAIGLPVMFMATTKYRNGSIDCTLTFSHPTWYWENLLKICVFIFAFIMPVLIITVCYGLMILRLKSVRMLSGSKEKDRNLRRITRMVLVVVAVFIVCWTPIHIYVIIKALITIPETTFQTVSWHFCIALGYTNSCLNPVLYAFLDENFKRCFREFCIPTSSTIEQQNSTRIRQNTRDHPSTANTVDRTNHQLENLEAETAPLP

human δ opioid receptor = molecular target: T3, human δ opioid receptor (Homo sapiens, UniProt P41143); test: binding to cloned human receptor in CHO cell membranes, [3H]Naltrindole
T3 construct: expressed in transfected cells; host or cells: Chinese hamster ovary (CHO) cells
T3 sequence (P41143 whole entry): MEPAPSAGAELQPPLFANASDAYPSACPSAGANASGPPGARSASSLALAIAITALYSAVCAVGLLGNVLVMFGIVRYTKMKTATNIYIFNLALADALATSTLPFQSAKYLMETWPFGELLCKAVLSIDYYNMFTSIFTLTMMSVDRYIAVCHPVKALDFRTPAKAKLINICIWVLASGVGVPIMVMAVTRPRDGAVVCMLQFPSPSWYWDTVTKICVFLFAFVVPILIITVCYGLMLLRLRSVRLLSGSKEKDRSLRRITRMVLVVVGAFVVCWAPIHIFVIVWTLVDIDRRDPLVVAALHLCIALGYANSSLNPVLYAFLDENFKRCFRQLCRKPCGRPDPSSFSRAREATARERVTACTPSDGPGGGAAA
Method: The affinities of the compounds of the invention were determined in guinea pig brain cells by the method described in Wentland et al. Biorgan. Med. Chem. Lett. 9. […] CHO cell membranes, expressing the human μ, δ, or κ opioid receptor, were incubated with 12 different concentrations of the compounds in the presence of receptor-specific radioligands at 25° C., in a final volume of 1 ml of 50 mM Tris-HCl, pH 7.5. Nonspecific binding was determined using 1 μM naloxone. Data are the mean value ±S.E.M. from three experiments, performed in triplicate.

human μ opioid receptor = molecular target: T4, human μ opioid receptor (Homo sapiens, UniProt P35372); test: biochemical; format: binding
T4 construct: expressed in transfected cells; host or cells: Chinese hamster ovary (CHO) cells
T4 sequence (P35372 whole entry): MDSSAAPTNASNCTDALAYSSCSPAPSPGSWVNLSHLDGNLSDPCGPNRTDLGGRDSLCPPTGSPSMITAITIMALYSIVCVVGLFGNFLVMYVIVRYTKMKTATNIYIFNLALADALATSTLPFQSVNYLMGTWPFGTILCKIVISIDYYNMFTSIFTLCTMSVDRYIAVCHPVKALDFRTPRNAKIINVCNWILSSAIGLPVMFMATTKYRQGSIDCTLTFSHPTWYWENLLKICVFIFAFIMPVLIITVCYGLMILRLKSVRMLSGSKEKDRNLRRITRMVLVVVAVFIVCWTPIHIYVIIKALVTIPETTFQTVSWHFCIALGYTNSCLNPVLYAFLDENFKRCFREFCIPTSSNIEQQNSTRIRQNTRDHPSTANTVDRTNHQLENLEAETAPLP

human κ opioid receptor = molecular target: T5, human κ opioid receptor (Homo sapiens, UniProt P41145); test: biochemical; format: binding
T5 construct: expressed in transfected cells; host or cells: Chinese hamster ovary (CHO) cells
T5 sequence (P41145 whole entry): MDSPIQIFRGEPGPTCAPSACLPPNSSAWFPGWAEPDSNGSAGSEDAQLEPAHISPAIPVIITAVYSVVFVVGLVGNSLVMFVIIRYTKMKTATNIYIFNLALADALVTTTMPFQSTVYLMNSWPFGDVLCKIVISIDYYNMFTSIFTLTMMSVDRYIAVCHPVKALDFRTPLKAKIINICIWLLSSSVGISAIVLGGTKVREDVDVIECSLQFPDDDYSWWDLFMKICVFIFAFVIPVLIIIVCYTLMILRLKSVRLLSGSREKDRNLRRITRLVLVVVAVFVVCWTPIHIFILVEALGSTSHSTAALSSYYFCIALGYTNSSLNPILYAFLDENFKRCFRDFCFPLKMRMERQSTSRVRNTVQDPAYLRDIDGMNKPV

T1 sequence (A0A286XTF2 1-366): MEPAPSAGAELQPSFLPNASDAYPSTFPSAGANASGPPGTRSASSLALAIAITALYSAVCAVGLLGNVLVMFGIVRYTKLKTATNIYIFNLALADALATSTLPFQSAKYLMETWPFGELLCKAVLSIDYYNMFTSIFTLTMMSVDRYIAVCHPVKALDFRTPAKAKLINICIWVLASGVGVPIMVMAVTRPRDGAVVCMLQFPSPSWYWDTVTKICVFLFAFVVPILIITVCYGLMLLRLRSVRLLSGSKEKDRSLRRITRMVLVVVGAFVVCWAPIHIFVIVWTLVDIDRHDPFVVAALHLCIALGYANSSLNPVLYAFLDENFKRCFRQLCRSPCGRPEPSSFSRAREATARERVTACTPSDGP

Question: `CC1C2Cc3ccc(C(=O)NCc4ccccc4)cc3C1(C)CCN2CC1CC1` (stereo not drawn) [Example 9] was tested. Which Ki (δ opioid receptor; Ki [3H] Naltrindole (δ)) did it give?
Answer: 140 ± 18 nM

Question: What about the Ki (κ opioid receptor; Ki [3H] U69,593 (κ)) of the same molecule?
Answer: 78 ± 7.6 nM

Question: Which results are given for `CCOC(=O)c1ccc2c3c1OC1C(=O)CCC4(O)C(C2)N(CC2CC2)CCC314` (stereo not drawn) [Example 33]?
Answer: Ki (μ opioid receptor; read-out: [3H] DAMGO (μ)): 24 ± 1.7 nM; Ki (δ opioid receptor; read-out: [3H] Naltrindole (δ)): 970 ± 155 nM; Ki (κ opioid receptor; read-out: [3H] U69,593 (κ)): 16 ± 0.7 nM

Question: How did the Ki (δ opioid receptor; [3H] Naltrindole (δ)) turn out when `C[C@H]1[C@H]2Cc3ccc(CN)cc3[C@]1(C)CCN2C[C@@H]1CCCO1` [Example 29] was run?
Answer: 300 ± 27 nM

Question: What about the Ki (κ opioid receptor; [3H] U69,593 (κ)) of the same molecule?
Answer: 18 ± 1.9 nM

Question: How did the Ki (δ opioid receptor; Ki [3H] Naltrindole (δ)) turn out when `CC1C2Cc3ccc(C(N)=O)cc3C1(C)CCN2CC1CC1` (single isomer, unassigned) [Example 4b] was run?
Answer: 570 ± 50 nM

Question: Which Ki (δ opioid receptor; [3H] Naltrindole (δ)) does the source give for `CC1C2Cc3ccc(C(N)=O)cc3C1(C)CCN2CC1CCCO1` (single isomer, unassigned) [Example 28] here?
Answer: 34 ± 0.1 nM

Question: And the Ki (κ opioid receptor; [3H] U69,593 (κ))?
Answer: 2.8 ± 0.24 nM

Question: Which results are given for `CC1[C@@H]2Cc3ccc(C(=N)NO)cc3[C@@]1(C)CCN2CC1CC1` (mixture of isomers) [Example 14, (±)-3-(Cyclopropylmethyl)-1,2,3,4,5,6-hexahydro-N-hydroxy-cis-6,11-dimethyl-2,6-methano-3-benzazocin-8-carboxamidine]?
Answer: Ki (δ opioid receptor; Ki [3H] Naltrindole (δ)): 16 ± 0.67 nM; Ki (κ opioid receptor; Ki [3H] U69,593 (κ)): 0.9 ± 0.15 nM

Question: How did the Ki (human δ opioid receptor) turn out when `CC1C2Cc3ccc(CC#N)cc3C1(C)CCN2CC1CC1` (stereo not drawn) [Example 38] was run?
Answer: 2000 ± 685 nM

Question: What about the Ki (human μ opioid receptor) of the same molecule?
Answer: 3.3 ± 1.5 nM

Question: What about the Ki (human κ opioid receptor) of the same molecule?
Answer: 2.9 ± 0.36 nM

Question: For `CC1C2Cc3ccc(NC(N)=O)cc3C1(C)CCN2CC1CC1` (racemic) [Example 36], which Ki (μ opioid receptor; read-out: Ki [3H] DAMGO (μ)) is on record?
Answer: 20 ± 0.66 nM

Question: What about the Ki (δ opioid receptor; read-out: Ki [3H] Naltrindole (δ)) of the same molecule?
Answer: 90 ± 12 nM

Question: What about the Ki (κ opioid receptor; read-out: Ki [3H] U69,593 (κ)) of the same molecule?
Answer: 15 ± 1.4 nM

Question: Which Ki (δ opioid receptor; [3H] Naltrindole (δ)) does the source give for `CC1C2Cc3ccc(O)cc3C1(C)CCN2CC1CCCO1` (single isomer, unassigned) [Example 27, reference compound] here?
Answer: 67 ± 4.3 nM

Question: What about the Ki (κ opioid receptor; [3H] U69,593 (κ)) of the same molecule?
Answer: 1.5 ± 0.07 nM

Question: How did the Ki (δ opioid receptor; read-out: [3H] Naltrindole (δ)) turn out when `CCC12CCN(CC3CC3)C(C(=O)c3ccc(NC=O)cc31)C2C` (stereo not drawn) [Example 40] was run?
Answer: 52 ± 3.4 nM

Question: What about the Ki (κ opioid receptor; read-out: [3H] U69,593 (κ)) of the same molecule?
Answer: 1.2 ± 0.11 nM

Question: Which results are given for `C[C@H]1[C@H]2Cc3ccc(C(=O)NCCCN(C)C)cc3[C@]1(C)CCN2CC1CC1` (racemic) [Example 12]?
Answer: Ki (δ opioid receptor; Ki [3H] Naltrindole (δ)): 3000 ± 230 nM; Ki (κ opioid receptor; Ki [3H] U69,593 (κ)): 310 ± 64 nM

Question: Which Ki (δ opioid receptor; Ki [3H] Naltrindole (δ)) does the source give for `CC1C2Cc3ccc(NC=S)cc3C1(C)CCN2CC1CC1` (stereo not drawn) [Example 20] here?
Answer: 16 ± 0.3 nM

Question: And the Ki (κ opioid receptor; Ki [3H] U69,593 (κ))?
Answer: 0.63 ± 0.15 nM

Question: Which results are given for `CC1C2Cc3ccc(CN)cc3C1(C)CCN2CC1CC1` (mixture of isomers) [Example 15, (±)-[3-(Cyclopropylmethyl)-1,2,3,4,5,6,-hexahydro-cis-6,11-dimethyl-2,6-methano-3-benzazocin-8-yl]-methylamine]?
Answer: Ki (δ opioid receptor; Ki [3H] Naltrindole (δ)): 390 ± 47 nM; Ki (κ opioid receptor; Ki [3H] U69,593 (κ)): 17 ± 2.9 nM

Question: `CC1C2Cc3ccc(C=NO)cc3C1(C)CCN2CC1CC1` (stereo not drawn) [Example 39] was tested. Which Ki (human δ opioid receptor) did it give?
Answer: 140 ± 15 nM

Question: And the Ki (human μ opioid receptor)?
Answer: 18 ± 1.8 nM

Question: What about the Ki (human κ opioid receptor) of the same molecule?
Answer: 0.73 ± 0.03 nM

Question: `CCC12CCN(CC3CC3)C(C(=O)c3ccc(C(N)=O)cc31)C2C` (stereo not drawn) [Example 24] was tested. Which Ki (δ opioid receptor; read-out: [3H] Naltrindole (δ)) did it give?
Answer: 9.8 ± 0.5 nM

Question: And the Ki (κ opioid receptor; read-out: [3H] U69,593 (κ))?
Answer: 0.7 ± 0.08 nM

Question: How did the Ki (δ opioid receptor; Ki [3H] Naltrindole (δ)) turn out when `C[C@H]1C2Cc3ccc(CO)cc3[C@@]1(C)CCN2CC1CC1` (racemic) [Example 16, (±)-[3-(Cyclopropylmethyl)-1,2,3,4,5,6,-hexahydro-cis-6,11-dimethyl-2,6-methano-3-benzazocin-8-yl]-methanol] was run?
Answer: 210 ± 29 nM

Question: What about the Ki (κ opioid receptor; Ki [3H] U69,593 (κ)) of the same molecule?
Answer: 7.6 ± 0.8 nM

Question: With `CC1C2Cc3ccc(C(=O)NCCN(C)C)cc3C1(C)CCN2CC1CC1` (stereo not drawn) [Example 11] as the molecule, how does the Ki (δ opioid receptor; Ki [3H] Naltrindole (δ)) read?
Answer: 350 ± 51 nM

Question: What about the Ki (κ opioid receptor; Ki [3H] U69,593 (κ)) of the same molecule?
Answer: 44 ± 11 nM

Question: Which results are given for `CC1C2Cc3ccc(O)cc3C1(C)CCN2CC1CCCO1` (single isomer, unassigned) [Example 25, reference compound]?
Answer: Ki (δ opioid receptor; [3H] Naltrindole (δ)): 3.6 ± 0.4 nM; Ki (κ opioid receptor; [3H] U69,593 (κ)): 0.09 ± 0.01 nM

Question: Which Ki (δ opioid receptor; Ki [3H] Naltrindole (δ)) does the source give for `CNC(=O)c1ccc2c(c1)C1(C)CCN(CC3CC3)C(C2)C1C` (stereo not drawn) [Example 8] here?
Answer: 63 ± 4.1 nM

Question: And the Ki (κ opioid receptor; Ki [3H] U69,593 (κ))?
Answer: 2.6 ± 0.19 nM

Question: What does the source list for `C[C@H]1[C@H]2Cc3ccc(NS(C)(=O)=O)cc3[C@]1(C)CCN2CC1CC1` (racemic) [Example 21]?
Answer: Ki (δ opioid receptor; Ki [3H] Naltrindole (δ)): 780 ± 170 nM; Ki (κ opioid receptor; Ki [3H] U69,593 (κ)): 21 ± 1.5 nM

Question: Which Ki (δ opioid receptor; read-out: [3H] Naltrindole (δ)) does the source give for `C[C@H]1[C@H]2Cc3ccc(O)cc3[C@]1(C)CCN2CC1CC1` [(+)-Cyclazocine, Cyclazocine, reference compound] here?
Answer: 1100 ± 63 nM

Question: And the Ki (κ opioid receptor; read-out: [3H]U69,593 (κ))?
Answer: 76 ± 8.2 nM

Question: For `C[C@H]1[C@H]2Cc3ccc(C(=O)O)cc3[C@]1(C)CCN2CC1CC1` (racemic) [Example 2], which Ki (δ opioid receptor; Ki [3H] Naltrindole (δ)) is on record?
Answer: 320 ± 14 nM

Question: What about the Ki (κ opioid receptor; Ki [3H] U69,593 (κ)) of the same molecule?
Answer: 31 ± 0.87 nM

Question: With `COC(=O)c1ccc2c(c1)[C@@]1(C)CCN(CC3CC3)C(C2)[C@@H]1C` (racemic) [Example 3, (±)-3-(Cyclopropylmethyl)-1,2,3,4,5,6,-hexahydro-cis-6,11-dimethyl-2,6-methano-3-benzazocin-8-carboxylic acid methyl ester] as the molecule, how does the Ki (δ opioid receptor; Ki [3H] Naltrindole (δ)) read?
Answer: 59 ± 2.1 nM

Question: What about the Ki (κ opioid receptor; Ki [3H] U69,593 (κ)) of the same molecule?
Answer: 2 ± 0.21 nM

Question: `CC1C2C(=O)c3ccc(O)cc3[C@@]1(C)CCN2CC1CC1` (mixture of isomers) [(±)-ketocyclazocine, Ketocyclazocine, reference compound] was tested. Which Ki (human δ opioid receptor) did it give?
Answer: 130 ± 14 nM

Question: What about the Ki (δ opioid receptor; [3H] Naltrindole (δ)) of the same molecule?
Answer: 20 ± 2.7 nM

Question: What about the Ki (human μ opioid receptor) of the same molecule?
Answer: 1.7 ± 0.21 nM

Question: And the Ki (κ opioid receptor; [3H] U69,593 (κ))?
Answer: 1 ± 0.24 nM

Question: What about the Ki (human κ opioid receptor) of the same molecule?
Answer: 1 ± 0.019 nM
